According to patent publication US7153881B2, “Compounds acting as melanocortin receptor ligands” (Acure Pharma AB, priority 2001, dated 2006):

Legend:
MC3 [1] = biological target: T1, MC3 (Homo sapiens, UniProt P41968); test: Affinity for the MC3-receptors, binding assay using I125-NDP-αMSH as ligand
Method: (§1) Test 2. Affinity for the MC3-receptors, the MC4-receptors and the MC5-receptors
(§2) The binding assays were carried out essentially as described by Szardenings et al, J Biol Chem 1997; 272; 27943–27948 and Schiöth et al, FEBS Lett 1997; 410; 223–228 using I125-NDP-αMSH as ligand.

MC4 [2] = biological target: T2, MC4 (Homo sapiens, UniProt P32245); test: Stimulation of cAMP, MC4; format: cell-based; conditions: response given relative to α-MSH
T2 sequence (P32245 whole entry): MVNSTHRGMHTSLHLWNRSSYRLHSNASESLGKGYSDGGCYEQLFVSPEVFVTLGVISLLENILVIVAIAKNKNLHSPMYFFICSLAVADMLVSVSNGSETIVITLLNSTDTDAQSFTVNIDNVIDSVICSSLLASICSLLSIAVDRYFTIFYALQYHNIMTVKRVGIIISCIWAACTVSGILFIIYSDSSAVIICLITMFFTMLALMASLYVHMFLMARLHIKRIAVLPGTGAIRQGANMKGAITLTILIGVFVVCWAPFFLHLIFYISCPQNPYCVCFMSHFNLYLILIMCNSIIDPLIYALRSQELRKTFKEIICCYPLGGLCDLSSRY
Method: (§3) The stimulation of cAMP was carried out essentially as described by Schiöth et al, Br J Pharmacol 1998; 124; 75–82, however, the response is given relative to α-MSH.

MC3 [3] = biological target: T1, MC3; test: Stimulation of cAMP, MC3; format: cell-based; conditions: response given relative to α-MSH
Method: as §3

MC1 = MC1 (Homo sapiens, UniProt Q01726); test: Stimulation of cAMP, MC1; format: cell-based; conditions: response given relative to α-MSH
MC1, sequence (Q01726 whole entry): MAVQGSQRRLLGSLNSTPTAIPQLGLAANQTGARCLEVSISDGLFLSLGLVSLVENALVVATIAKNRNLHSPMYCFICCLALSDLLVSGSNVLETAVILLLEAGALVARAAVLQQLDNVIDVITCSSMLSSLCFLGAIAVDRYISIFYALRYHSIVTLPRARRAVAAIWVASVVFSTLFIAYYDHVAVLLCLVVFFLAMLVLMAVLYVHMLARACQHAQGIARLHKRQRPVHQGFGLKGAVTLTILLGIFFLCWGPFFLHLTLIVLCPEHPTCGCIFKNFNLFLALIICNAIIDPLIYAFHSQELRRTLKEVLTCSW
Method: as §3

MC5-receptors = MC5-receptors (Homo sapiens, UniProt P33032); test: Affinity for the MC5-receptors, binding assay using I125-NDP-αMSH as ligand
MC5-receptors, sequence (P33032 whole entry): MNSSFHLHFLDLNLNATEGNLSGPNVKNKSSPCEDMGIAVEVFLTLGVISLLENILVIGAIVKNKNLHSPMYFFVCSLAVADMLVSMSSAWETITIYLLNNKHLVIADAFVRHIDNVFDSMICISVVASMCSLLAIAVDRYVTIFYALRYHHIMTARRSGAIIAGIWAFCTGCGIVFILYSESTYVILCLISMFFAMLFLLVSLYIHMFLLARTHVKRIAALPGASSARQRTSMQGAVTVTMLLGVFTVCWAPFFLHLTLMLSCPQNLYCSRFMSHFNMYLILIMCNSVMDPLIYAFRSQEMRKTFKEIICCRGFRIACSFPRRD
Method: as §1, §2

MC4 [4] = biological target: T2, MC4; test: Affinity for the MC4-receptors, binding assay using I125-NDP-αMSH as ligand
Method: as §1, §2

T1 sequence (P41968 whole entry): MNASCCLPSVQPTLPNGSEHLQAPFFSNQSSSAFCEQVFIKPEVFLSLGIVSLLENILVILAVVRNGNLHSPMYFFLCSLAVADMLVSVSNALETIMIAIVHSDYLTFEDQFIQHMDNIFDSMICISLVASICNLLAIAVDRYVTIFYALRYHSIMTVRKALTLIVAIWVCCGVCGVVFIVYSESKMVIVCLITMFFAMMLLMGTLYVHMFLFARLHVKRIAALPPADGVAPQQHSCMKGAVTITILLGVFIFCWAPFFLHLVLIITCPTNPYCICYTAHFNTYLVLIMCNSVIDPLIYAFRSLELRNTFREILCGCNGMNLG

melting point [°C] | Compound | also measured
192 to 194 | N=C(NCc1ccccc1)NN=Cc1ccc(O)cc1 [Compound 18, N-(4-hydroxybenzylideneamino)-N′-benzylguanidine] | –
213 to 215 | N=C(N)N(Cc1cccc2ccccc12)N=Cc1c[nH]c2ccccc12 [Compound 13, N-(1H-indol-3-yl-methylideneamino)-N-(naphthalen-1-ylmethyl)guanidine] | –
207 to 209 | N=C(NCCc1ccccc1)NN=Cc1c[nH]c2ccccc12 [Compound 12, N-(1H-indol-3-ylmethylideneamino)-N′-(2-phenylethyl)guanidine] | –
221 to 223 | N=C(NN=Cc1cccn1-c1ccc(Cl)cc1)NN=Cc1cccn1-c1ccc(Cl)cc1 [Compound 34, N,N′-Di-(1-(4-Chlorophenyl)-1H-pyrrol-2-ylmethyleneamino)guanidine] | –
241 to 243 | N=C(NCCc1ccccc1)NN=Cc1ccc([N+](=O)[O-])cc1 [Compound 20, N-(4-nitrobenzylideneamino)-N′-(2-phenylethyl)guanidine] | –
260 to 262 | N=C(NCc1cccc2ccccc12)NN=Cc1ccncc1 [Compound 11, N-(pyrid-4-yl-methylideneamino)-N′-(naphthalen-1-yl-methyl)guanidine] | –
296 to 298 | N=C(NN=Cc1c[nH]c2ccccc12)NN=Cc1c[nH]c2ccccc12 [Compound 14, N,N′-bis[1H-indol-3-yl-methylideneamino]guanidine] | –
175 to 177 | N=C(NCCc1ccccc1)NN=CC=Cc1ccccc1 [Compound 33] | Ki (MC3 [1]): 5.36 µM; cAMP agonist/plateau stim. α-MSH (%) MC4 (MC4 [2]): 161%; cAMP agonist/plateau stim. α-MSH (%) MC3 (MC3 [3]): 4%; cAMP agonist/plateau stim. α-MSH (%) MC1 (MC1): 8%; Ki (MC5-receptors): 8.23 µM; Ki (MC4 [4]): 3.59 µM
126 to 128 | COc1ccc(C=NNC(=N)NCCc2ccccc2)cc1 [Compound 10, N-(4-methoxybenzylideneamino)-N′-(2-phenylethyl)guanidine] | –
228 to 230 | COc1ccc(C=NNC(=N)NN=Cc2ccc(OC)c(OC)c2Cl)c(Cl)c1OC [Compound 32, N,N′-Di-(2-Chloro-3,4-Dimethoxybenzylideneamino)guanidine] | –
190 to 192 | N=C(NCc1ccccc1)NN=Cc1cccn1-c1ccc(Cl)cc1 [Compound 29, N-[1-(4-Chlorophenyl) 1H-pyrrol-2-ylmethyleneamino]-N′-benzylguanidine] | cAMP agonist/plateau stim. α-MSH (%) MC4 (MC4 [2]): 111%; cAMP agonist/plateau stim. α-MSH (%) MC3 (MC3 [3]): 3%; cAMP agonist/plateau stim. α-MSH (%) MC1 (MC1): 10%; Ki (MC5-receptors): 1.32 µM; Ki (MC4 [4]): 0.61 µM
239 to 241 | N=C(NCc1ccccc1)NN=Cc1ccc([N+](=O)[O-])cc1 [Compound 24, N-(4-Nitrobenzylideneamino)-N′-benzylguanidine] | –
179 to 181 | COc1ccc(C=NNC(=N)Nc2ccccc2)c(Cl)c1OC [Compound 16, N-(2-chloro-3,4-dimethoxybenzylideneamino)-N′-phenylguanidine] | –
149 to 152 | N=C(NN=Cc1ccccc1Br)Nc1ccccc1 [Compound 28, N-(2-Bromobenzylideneamino)-N′-phenylguanidine] | –
244 to 246 | N=C(NCCc1ccccc1)NN=Cc1ccc2ccccc2c1 [Compound 21, N-(naphthalen-2-yl-methylideneamino)-N′-(2-phenylethyl)guanidine] | –
217 to 219 | CNC(=N)NN=Cc1cc([N+](=O)[O-])ccc1F [Compound 35, N-(2-Fluoro-5-nitrobenzylideneamino)-N′-methylguanidine] | –
191 to 193 | N=C(NN=Cc1cc([N+](=O)[O-])ccc1F)Nc1ccccc1 [Compound 17, N-(2-fluoro-5-nitrobenzylideneamino)-N′-phenylguanidine] | –
207 to 210 | CNC(=N)NN=Cc1ccc(OC)c(OC)c1Cl [Compound 37, N-(2-Chloro-3,4-dimethoxybenzylideneamino)-N′-methylguanidine] | –
215 to 217 | COc1ccc(C=NNC(=N)NCc2ccccc2)c(Cl)c1OC [Compound 1, N-(2-chloro-3,4-dimethoxybenzylideneamino)-N′-benzylguanidine] | –
180 to 190 | N=C(NN=Cc1ccc([N+](=O)[O-])cc1[N+](=O)[O-])Nc1ccccc1 | –
167 to 169 | COc1ccc(C=NNC(=Nc2ccccc2)NO)c(Cl)c1OC [Compound 2, N-(2-chloro-3,4-dimethoxybenzylideneamino)-N′-hydroxy-N″-phenylguanidine] | –
154 to 155 | N=C(NCCc1ccccc1)NN=Cc1ccccc1Br [Compound 27, N-(2-Bromobenzylideneamino)-N′-phenethylguanidine] | Ki (MC3 [1]): 7.96 µM; cAMP agonist/plateau stim. α-MSH (%) MC4 (MC4 [2]): 97%; cAMP agonist/plateau stim. α-MSH (%) MC3 (MC3 [3]): 9%; cAMP agonist/plateau stim. α-MSH (%) MC1 (MC1): 12%; Ki (MC5-receptors): 5.8 µM; Ki (MC4 [4]): 1.35 µM
218 to 220 | N=C(NN=Cc1ccc2ccccc2c1)Nc1ccc2ccccc2c1 [Compound 23, N-(naphthalen-2-yl-methylideneamino)-N′-naphthalen-2-ylguanidine] | –
253 to 255 | N=C(NN=Cc1cccc2ccccc12)NN=Cc1cccc2ccccc12 [Compound 30, N,N′-Di-(naphthalen-1-ylmethyleneamino)guanidine] | –
